Tests used:
[1] = test system: unselected depression patients; settings: Cipriani et al. 2018; cited from earlier work
[2] = test system: patients with major depressive disorder; test: Open-label trials of adjunctive agomelatine 25 mg at bedtime; baseline EEG machine learning models predicting change in MADRS; format: in vivo, human; settings: for Cohen's d, prediction of agomelatine outcome: REC
Description: The inventors conducted two parallel open-label clinical trials of agomelatine at 25 mg once at bedtime in patients with major depressive disorder (NCT05118750 and NCT05157945, whose data was pooled in these analyses). […] Patients were evaluated over the course of eight weeks of treatment.
EEG data were collected at rest (encompassing both eyes open and eyes closed conditions) prior to treatment using a 19-channel EEG system covering the conventional 10-20 electrode locations. A total of 107 patients with moderate to severe depression (MADRS 20 and PHQ-9≥10) had EEG data (107 with eyes open (REO) EEG, 105 with eyes closed (REC) EEG). Quality control assessments were conducted, yielding 105 REO patient datasets and 103 REC patient datasets. […] The training dataset consisted of 60 REO patient datasets and 60 REC patient datasets. The holdout set consisted of […] and […].
In order to compile these individual signals into a single EEG composite entropy model for prediction of treatment outcome, the inventors conducted 10-fold cross-validated machine learning using elastic net regularization against an outcome of high versus low response to agomelatine. Cross-validation divides the training dataset iteratively into 9/10 for training the machine learning model and 1/10 for evaluating the predictive utility of the model (i.e., participants left out of the training itself, though part of the aforementioned training dataset). The training sample is then divided in this way until each participant has been left out of the training subset.
The Cohen's d effect sizes at these weeks are all >0.4, indicating a substantial effect size for the prediction, especially considering that the meta-analytically calculated all-comer (i.e., unselected depression patients) effect size for the difference in treatment response to agomelatine (as monotherapy) versus placebo is d=0.26 (Cipriani et al., Lancet., 2018, 391(10128):1357-1366, PMID: 29477251).
In addition to sample entropy, the inventors developed similar machine learning models to test the predictive utility of a range of other EEG complexity measures, as well as other common EEG indices. […] Thus, certain complexity measures appear to carry consistent and strong prediction of agomelatine outcome.

Structure (SMILES): COc1ccc2cccc(CCNC(C)=O)c2c1 [agomelatine, N-[2-(7-methoxynaphthalen-1-yl)ethyl]acetamide]
- all-comer effect size d, treatment response to agomelatine (as monotherapy) versus placebo [1]: 0.26
- Cohen's d effect size, predicted responders vs non-responders, change in MADRS ([2]; EEG sample entropy machine learning model, cross-validation left-out data of training dataset, all weeks): > 0.4
- Cohen's d, prediction of agomelatine outcome ([2]; Approximate Entropy, lower gamma, Week 1): 0.23
- Cohen's d, prediction of agomelatine outcome ([2]; Approximate Entropy, lower gamma, Week 2): 0.29
- Cohen's d, prediction of agomelatine outcome ([2]; Approximate Entropy, lower gamma, Week 4): 0.46
- Cohen's d, prediction of agomelatine outcome ([2]; Detrended Fluctuation Analysis, lower beta, Week 1): 0.49
- Cohen's d, prediction of agomelatine outcome ([2]; Detrended Fluctuation Analysis, lower beta, Week 2): 0.44
- Cohen's d, prediction of agomelatine outcome ([2]; Detrended Fluctuation Analysis, lower beta, Week 4): 0.41
- Cohen's d, prediction of agomelatine outcome ([2]; Detrended Fluctuation Analysis, upper beta, Week 1): 0.19
- Cohen's d, prediction of agomelatine outcome ([2]; Detrended Fluctuation Analysis, upper beta, Week 2): 0.20
- Cohen's d, prediction of agomelatine outcome ([2]; Detrended Fluctuation Analysis, upper beta, Week 4): 0.25
- Cohen's d, prediction of agomelatine outcome ([2]; Higuchi Fractal Dimension, lower beta, Week 1): 0.44
- Cohen's d, prediction of agomelatine outcome ([2]; Higuchi Fractal Dimension, lower beta, Week 2): 0.36
- Cohen's d, prediction of agomelatine outcome ([2]; Higuchi Fractal Dimension, lower beta, Week 4): 0.28
- Cohen's d, prediction of agomelatine outcome ([2]; Higuchi Fractal Dimension, lower gamma, Week 1): 0.64
- Cohen's d, prediction of agomelatine outcome ([2]; Higuchi Fractal Dimension, lower gamma, Week 2): 0.58
- Cohen's d, prediction of agomelatine outcome ([2]; Higuchi Fractal Dimension, lower gamma, Week 4): 0.57
- Cohen's d, prediction of agomelatine outcome ([2]; Higuchi Fractal Dimension, upper beta, Week 1): −0.29
- Cohen's d, prediction of agomelatine outcome ([2]; Higuchi Fractal Dimension, upper beta, Week 2): −0.20
- Cohen's d, prediction of agomelatine outcome ([2]; Higuchi Fractal Dimension, upper beta, Week 4): −0.05
- Cohen's d, prediction of agomelatine outcome ([2]; Higuchi Fractal Dimension, upper gamma, Week 1): 0.16
- Cohen's d, prediction of agomelatine outcome ([2]; Higuchi Fractal Dimension, upper gamma, Week 2): 0.16
- Cohen's d, prediction of agomelatine outcome ([2]; Higuchi Fractal Dimension, upper gamma, Week 4): 0.21
- Cohen's d, prediction of agomelatine outcome ([2]; Katz Fractal Dimension, lower beta, Week 1): 0.47
- Cohen's d, prediction of agomelatine outcome ([2]; Katz Fractal Dimension, lower beta, Week 2): 0.42
- Cohen's d, prediction of agomelatine outcome ([2]; Katz Fractal Dimension, lower beta, Week 4): 0.37
- Cohen's d, prediction of agomelatine outcome ([2]; Katz Fractal Dimension, lower gamma, Week 1): 0.25
- Cohen's d, prediction of agomelatine outcome ([2]; Katz Fractal Dimension, lower gamma, Week 2): 0.23
- Cohen's d, prediction of agomelatine outcome ([2]; Katz Fractal Dimension, lower gamma, Week 4): 0.23
- Cohen's d, prediction of agomelatine outcome ([2]; Katz Fractal Dimension, upper beta, Week 1): 0.42
- Cohen's d, prediction of agomelatine outcome ([2]; Katz Fractal Dimension, upper beta, Week 2): 0.40
- Cohen's d, prediction of agomelatine outcome ([2]; Katz Fractal Dimension, upper beta, Week 4): 0.42
- Cohen's d, prediction of agomelatine outcome ([2]; Katz Fractal Dimension, upper gamma, Week 1): 0.04
- Cohen's d, prediction of agomelatine outcome ([2]; Katz Fractal Dimension, upper gamma, Week 2): 0.10
- Cohen's d, prediction of agomelatine outcome ([2]; Katz Fractal Dimension, upper gamma, Week 4): 0.23
- Cohen's d, prediction of agomelatine outcome ([2]; Largest Lyapunov Exponent, upper alpha, Week 1): 0.10
- Cohen's d, prediction of agomelatine outcome ([2]; Largest Lyapunov Exponent, upper alpha, Week 2): 0.12
- Cohen's d, prediction of agomelatine outcome ([2]; Largest Lyapunov Exponent, upper alpha, Week 4): 0.18
- Cohen's d, prediction of agomelatine outcome ([2]; Largest Lyapunov Exponent, upper gamma, Week 1): −0.02
- Cohen's d, prediction of agomelatine outcome ([2]; Largest Lyapunov Exponent, upper gamma, Week 2): 0.08
- Cohen's d, prediction of agomelatine outcome ([2]; Largest Lyapunov Exponent, upper gamma, Week 4): 0.29
- Cohen's d, prediction of agomelatine outcome ([2]; Lempel-Ziv Complexity, lower gamma, Week 1): −0.06
- Cohen's d, prediction of agomelatine outcome ([2]; Lempel-Ziv Complexity, lower gamma, Week 2): 0.01
- Cohen's d, prediction of agomelatine outcome ([2]; Lempel-Ziv Complexity, lower gamma, Week 4): 0.15
- Cohen's d, prediction of agomelatine outcome ([2]; Lempel-Ziv Complexity, upper alpha, Week 1): 0.21
- Cohen's d, prediction of agomelatine outcome ([2]; Lempel-Ziv Complexity, upper alpha, Week 2): 0.17
- Cohen's d, prediction of agomelatine outcome ([2]; Lempel-Ziv Complexity, upper alpha, Week 4): 0.13
- Cohen's d, prediction of agomelatine outcome ([2]; Modified Multiscale Entropy, lower alpha, Week 1): 0.08
- Cohen's d, prediction of agomelatine outcome ([2]; Modified Multiscale Entropy, lower alpha, Week 2): 0.11
- Cohen's d, prediction of agomelatine outcome ([2]; Modified Multiscale Entropy, lower alpha, Week 4): 0.19
- Cohen's d, prediction of agomelatine outcome ([2]; Modified Multiscale Entropy, lower gamma, Week 1): −0.09

Reference: patent US20250050053A1, “METHOD OF TREATMENT AND SELECTION OF PATIENTS BENEFITING FROM AGOMELATINE BASED ON EEG MEASUREMENTS” (Alto Neuroscience, Inc., priority 2023, published 2025)
